Assay results: patent publication US20100179225A1, “POI Prevention” (CYTOKINE PHARMASCIENCES, INC., priority 2008, published 2010)

Experiments:
JNK/SAPK = JNK/SAPK phosphorylation in ME lysates after intestinal manipulation (immunoblot); assay type: in vivo, C57BL/6J mice; details: 5 mg/kg i.v. preoperative; after IM
Text: The small bowel of the animals was subjected to a standardized, surgical manipulation (IM) as described previously (Kalff J C, Schraut W H, Simmons R L et al. Surgical manipulation of the gut elicits an intestinal muscularis inflammatory response resulting in postsurgical ileus. Ann Surg 1998; 228:652-663; Wehner S, Schwarz N T, Hundsdoerfer R et al. Induction of IL-6 within the rodent intestinal muscularis after intestinal surgical stress. Surgery 2005; 137:436-446). In brief, after anesthesia a midline abdominal incision was made into the peritoneal cavity. The entire small bowel was eventuated and manipulated with standardized moderate intensity using two moist cotton applicators as described previously. After IM, the laparotomy was closed by one layer of continuous suture, except when probe sampling was conducted within 20 minutes after surgery. […]
p38-MAPK and JNK/SAPK phosphorylation were analyzed in C57BL/6J mice 15, 30 and 60 minutes after IM and in unoperated controls. […] Finally, the sonicated samples were centrifuged at 13.000×g for 10 minutes, and total protein concentration was determined with Pierce BCA protein assay (Perbio, Bonn, Germany). […]
After PAGE, proteins were blotted on Immobilon-P […] PVDF membranes. […] Chemiluminscence signals were detected with a LAS 4000 system (Fujifilm, Duesseldorf, Germany).

ED1 positive cells = experiment: ED1 positive cell (monocyte/macrophage) infiltration into graft muscularis after small intestinal transplantation; assay type: in vivo, Lewis rats; details: 1 mg/kg i.v.; 18 h after reperfusion
Procedure: Syngeneic orthotopic small intestinal transplantation was performed in Lewis rats as previously described (Schwarz N T, Nakao A, Nalesnik M A, Kalff J C, Murase N, Bauer A J. Protective effects of ex vivo graft radiation and tacrolimus on syngeneic transplanted rat small bowel motility. Surgery 2002; 131: 413-423). […] Then the graft vascular bed was perfused with chilled UW solution (University of Wisconcin) and the intestinal lumen was irrigated with 50 ml cold 0.9% NaCl solution containing […]. neomycin sulfate (Uro Nebacetin N, Nycomed, Germany). The graft was stored in cold UW solution during the preparation of the recipient. An end-to-side anastomosis between the graft aorta and the recipient infra-renal aorta, and between the graft vein and recipient vena cava, was performed. […]
ED1 and MPO+-cells were counted under a microscope (TE-2000, Nikon, Duesseldorf, Germany) in 5 randomly chosen areas in each specimen.
In order to evaluate cell populations which are known to be associated with inflammation processes and to initiate immunological processes within the muscularis, leukocyte infiltrates were evaluated after 18 h by MPO histochemistry (polymorphonuclear neutrophils) and ED1 immunohistochemistry (monocytes and passenger macrophages). […]

With `C/C(=N\N=C(N)N)c1cc(NC(=O)CCCCCCCCC(=O)Nc2cc(/C(C)=N/N=C(N)N)cc(/C(C)=N/N=C(N)N)c2)cc(/C(C)=N/N=C(N)N)c1.Cl.Cl.Cl.Cl` [CNI-1493] the JNK/SAPK phosphorylation (JNK/SAPK) was “not affected”.

For `C/C(=N\N=C(N)N)c1cc(NC(=O)CCCCCCCCC(=O)Nc2cc(/C(C)=N/N=C(N)N)cc(/C(C)=N/N=C(N)N)c2)cc(/C(C)=N/N=C(N)N)c1.CS(=O)(=O)O.CS(=O)(=O)O.CS(=O)(=O)O.CS(=O)(=O)O` [CPSI-2364], the “ED1 positive cells in muscularis” value (ED1 positive cells) was 54.8 cells/field of view (magnification 200×).
